From patent US20260209253A1, “SILVER ION COMPLEX GEMINI QUATERNARY AMMONIUM SALT: PREPARATION METHOD AND APPLICATIONS” (ANHUI KIWI BIOTECH CO., LTD, priority 2023, published 2026)

Tested on: Escherichia coli
Assay: suspension quantitative bactericidal test (2.1.1.7.4, Disinfection Technical Specifications 2002 edition), 30 min
Assay type: cell-based
Conditions: for antibacterial performance (in words): Table 3, 0.0015625% and 0.00078125% aqueous solutions
Experimental: Referring to 2.1.1.7.4 suspension quantitative bactericidal test (2002 edition of Disinfection Technical Specifications), neutralizer was prepared: 2.1% lecithin+2.0% glucose+0.5% sodium thiosulfate+1.5% tween-80+0.5% peptone+1.2% sodium sulfite aqueous solution. C6-S—Cl (Example 1), C8-S—Cl (Example 3) and C10-S—Cl (Example 5) were diluted into 0.0015625% and 0.00078125% aqueous solutions, and the bactericidal experiment was carried out for 30 min to Escherichia coli.
Referring to 2.1.1.7.4 suspension quantitative bactericidal test (2002 edition of Disinfection Technical Specifications), neutralizer was prepared: 2.1% lecithin+2.0% glucose+0.5% sodium thiosulfate+1.5% tween-80+0.5% peptone+1.2% sodium sulfite aqueous solution. C8-S—Cl (Example 3), C8-S—Br (Example 4) and C8-S—NO3 (Example 7) were diluted into 0.0015625% and 0.00078125% aqueous solutions, and the bactericidal experiment was carried out for 30 min to Escherichia coli.
Referring to 2.1.1.7.4 suspension quantitative bactericidal test (2002 edition of Disinfection Technical Specifications), neutralizer was prepared: 2.1% lecithin+2.0% glucose+0.5% sodium thiosulfate+1.5% tween-80+0.5% peptone+1.2% sodium sulfite aqueous solution. C8-S—Cl (Example 3), C8-S—NO3—Ag^+ (Example 3), C8-S—CI—Cu^2+ (ratio 1), C8-S—CI—Mn^2+ (ratio 2), C8-S—CI—Fe^3+ (ratio 3), AgNO3, CuCl2, MnCl2, and FeCl3 were dissolved to 0.0015625% and 0.00078125% aqueous solution.
Referring to 2.1.1.7.4 suspension quantitative bactericidal test (2002 edition of Disinfection Technical Specifications), neutralizer was prepared: 2.1% lecithin+2.0% glucose+0.5% sodium thiosulfate+1.5% tween-80+0.5% peptone+1.2% sodium sulfite aqueous solution. C8-S—Cl (Example 3), C8-S—NO3 (Example 7) and C8-S—NO3—Ag^+ (Example 3) were configured into 0.0015625%, 0.00078125% and 0.000390625% aqueous solutions.
Referring to 2.1.1.7.4 suspension quantitative bactericidal test (2002 edition of Disinfection Technical Specifications), neutralizer was prepared: 2.1% lecithin+2.0% glucose+0.5% sodium thiosulfate+1.5% tween-80+0.5% peptone+1.2% sodium sulfite aqueous solution. The bactericidal experiment was carried out on E. coli for 30 min by preparing the silver-ion complex Gemini quaternary ammonium salt (Example 3), C10 chlorinated sulfur-free Gemini quaternary ammonium salt (Comparative example 4) and uncomplex silver-ion Gemini quaternary ammonium salt (Comparative example 4) into 0.0015625%, 0.00078125% and 0.000390625% aqueous solutions.

[1] = Table 1, 0.00078125% aqueous solution, Escherichia coli
[2] = Table 1, 0.0015625% aqueous solution, Escherichia coli
[3] = Table 3, 0.00078125% aqueous solution, Escherichia coli
[4] = Table 3, 0.0015625% aqueous solution, Escherichia coli
[5] = Table 5, 0.000390625% aqueous solution, E. coli
[6] = Table 5, 0.00078125% aqueous solution, E. coli
[7] = Table 5, 0.0015625% aqueous solution, E. coli
[8] = Table 2, 0.00078125% aqueous solution, Escherichia coli
[9] = Table 2, 0.0015625% aqueous solution, Escherichia coli
[10] = Table 4, 0.000390625% aqueous solution, Escherichia coli
[11] = Table 4, 0.00078125% aqueous solution, Escherichia coli
[12] = Table 4, 0.0015625% aqueous solution, Escherichia coli

Row | Structure (SMILES) | Treated (cfu/mL) [1] | sterilizing rate [1] [%] | Treated (cfu/mL) [2] | sterilizing rate [2] [%] | Treated (cfu/mL) [3] | sterilizing rate [3] | antibacterial performance (in words) (Escherichia coli) | Treated (cfu/mL) [4] | sterilizing rate [4] | Treated (cfu/mL) [8] | sterilizing rate [8] [%] | Treated (cfu/mL) [9] [cfu/mL] | sterilizing rate [9] [%] | further results
1 | CCCCCCCCCCSCCC(=O)OCC[N+](C)(C)CCC[N+](C)(C)CCOC(=O)CCSCCCCCCCCCC [Example C10-S-Cl] | 4.6 × 10^4 cfu/mL | 99.841 | 5.8 × 10^2 cfu/mL | >99.99 | – | – | – | – | – | – | – | – | – | –
2 | [Cl][Mn][Cl] [MnCl2, reference compound] | – | – | – | – | 8.9 × 10^7 cfu/mL | No bactericidal effect | did not show any antibacterial performance | 2.3 × 10^7 cfu/mL | No bactericidal effect | – | – | – | – | –
3 | CCCCCCCCCC(=O)OCC[N+](C)(C)CCC[N+](C)(C)CCOC(=O)CCCCCCCCC [Example C10-Cl, reference compound] | – | – | – | – | – | – | – | – | – | – | – | – | – | Treated (cfu/mL) [5]: 4.3 × 10^5 cfu/mL; sterilizing rate [5]: 99.978%; Treated (cfu/mL) [6]: 3.5 × 10^3 cfu/mL; sterilizing rate [6]: >99.99%; Treated (cfu/mL) [7]: 1.2 × 10^2 cfu/mL; sterilizing rate [7]: >99.999%
4 | CCCCCCCCSCCC(=O)OCC[N+](C)(C)CCC[N+](C)(C)CCOC(=O)CCSCCCCCCCC [Example C8-S-Cl] | 1.9 × 10^2 cfu/mL | >99.99 | 90 cfu/mL | >99.999 | 1.8 × 10^3 cfu/mL | >99.99% | – | 86 cfu/mL | >99.999% | 1.7 × 10^3 cfu/mL | >99.99 | 79 | >99.999 | bactericidal rate (Table 1, 0.0015625% and 0.00078125% aqueous solutions, Escherichia coli): above 99.99%; Treated (cfu/mL) [5]: 2.6 × 10^5 cfu/mL; sterilizing rate [5]: 99.985%; Treated (cfu/mL) [6]: 1.8 × 10^3 cfu/mL; sterilizing rate [6]: >99.99%; Treated (cfu/mL) [7]: 82 cfu/mL; sterilizing rate [7]: >99.999%
5 | [Cl][Cu][Cl] [CuCl2, reference compound] | – | – | – | – | 4.9 × 10^8 cfu/mL | No bactericidal effect | did not show any antibacterial performance | 3.2 × 10^7 cfu/mL | No bactericidal effect | – | – | – | – | –
6 | CCCCCCSCCC(=O)OCC[N+](C)(C)CCC[N+](C)(C)CCOC(=O)CCSCCCCCC [Example C6-S-Cl] | 4.0 × 10^5 cfu/mL | 98.621 | 3.2 × 10^3 cfu/mL | 99.989 | – | – | – | – | – | – | – | – | – | –
7 | CCCCCCCCSCCC(=O)OCC[N+](C)(C)CCC[N+](C)(C)CCOC(=O)CCSCCCCCCCC [Example C8-S-NO3] | – | – | – | – | – | – | – | – | – | 1.4 × 10^2 cfu/mL | >99.999 | 13 | >99.999 | bactericidal rate (Table 2, 0.0015625% and 0.00078125% aqueous solutions, Escherichia coli): above 99.999%; Treated (cfu/mL) [10]: 4.5 × 10^4 cfu/mL; sterilizing rate [10]: >99.99%; Treated (cfu/mL) [11]: 2.5 × 10^2 cfu/mL; sterilizing rate [11]: >99.99%; Treated (cfu/mL) [12]: 13 cfu/mL; sterilizing rate [12]: >99.999%
8 | O=[N+]([O-])[O-].[Ag+] [AgNO3, reference compound] | – | – | – | – | 1.3 × 10^8 cfu/mL | No bactericidal effect | did not show any antibacterial performance | 2.2 × 10^7 cfu/mL | No bactericidal effect | – | – | – | – | –
9 | CCCCCCCCSCCC(=O)OCC[N+](C)(C)CCC[N+](C)(C)CCOC(=O)CCSCCCCCCCC [Example C8-S-Br] | – | – | – | – | – | – | – | – | – | 1.1 × 10^3 cfu/mL | >99.99 | 75 | >99.999 | –
10 | [Cl][Fe]([Cl])[Cl] [FeCl3, reference compound] | – | – | – | – | 6.2 × 10^8 cfu/mL | No bactericidal effect | did not show any antibacterial performance | 4.3 × 10^7 cfu/mL | No bactericidal effect | – | – | – | – | –
